Values quoted from earlier work in patent US20190167706A1, “Solid Pharmaceutical Composition Comprising Amorphous Sofosbuvir” (Sandoz AG, priority 2016, published 2019).

Row | Structure (SMILES) | relative humidity at which the substance deliquesces (amorphous form, compared to crystalline forms) | moisture stability: deliquescence under stress conditions (40° C. and a relative humidity (RH) of 75%)
1 | CC(C)OC(=O)[C@H](C)N[P@](=O)(OC[C@H]1O[C@@H](n2ccc(=O)[nH]c2=O)[C@](C)(F)[C@@H]1O)Oc1ccccc1 [Amorphous sofosbuvir, (S)-isopropyl 2-(((S)-(((2R,3R,4R,5R)-5-(2,4-dioxo-3,4-dihydropyrimidin-1(2H)-yl)-4-fluoro-3-hydroxy-4-methyltetrahydrofuran-2-yl)methoxy)(phenoxy)phosphoryl)amino)propanoate] | above 50% | 
2 | CC(C)OC(=O)[C@H](C)N[P@](=O)(OC[C@H]1O[C@@H](n2ccc(=O)[nH]c2=O)[C@](C)(F)[C@@H]1O)Oc1ccccc1 [sofosbuvir, (S)-isopropyl 2-(((S)-(((2R,3R,4R,5R)-5-(2,4-dioxo-3,4-dihydropyrimidin-1(2H)-yl)-4-fluoro-3-hydroxy-4-methyltetrahydrofuran-2-yl)methoxy)(phenoxy)phosphoryl)amino)propanoate] |  | deliquesces after a few hours
